The results in this text go back to PubChem BioAssay AID1259407 (Chemical Carcinogenesis Research Information System (CCRIS), 2018).

The source made the active and inactive calls. How the calls were made is not given here.

This data set concerns CCRIS mutagenicity, Ames/micronucleus/aberration tests. As to the kind of experiment: CCRIS mutagenicity studies.
[1] abbreviates: Test System: AMES SALMONELLA TYPHIMURIUM, Strain/Indicator: TA98, Metabolic Activation: NONE, Method: PREINCUBATION

Take `Cc1cccc(O)c1`: the mutagenic call by setting is: (End Point: IN VITRO CHROMOSOMAL ABERRATIONS, Test System: SYRIAN HAMSTER EMBRYO (SHE) CELLS, Metabolic Activation: NONE) “active; positive (structural changes)”; (End Point: IN VITRO CHROMOSOMAL ABERRATIONS, Test System: SYRIAN HAMSTER EMBRYO (SHE) CELLS, Metabolic Activation: RAT, LIVER, S-9) “active; positive (structural changes)”; under setting [1], “inactive; negative”; (Test System: AMES SALMONELLA TYPHIMURIUM, Strain/Indicator: TA98, Metabolic Activation: RAT, LIVER, S-9, SODIUM PHENOBARBITAL AND 5,6-BENZOFLAVONE, Method: PREINCUBATION) “inactive; negative”; (Test System: AMES SALMONELLA TYPHIMURIUM, Strain/Indicator: TA100, Metabolic Activation: NONE, Method: PREINCUBATION) “inactive; negative”; (Test System: AMES SALMONELLA TYPHIMURIUM, Strain/Indicator: TA100, Metabolic Activation: RAT, LIVER, S-9, SODIUM PHENOBARBITAL AND 5,6-BENZOFLAVONE, Method: PREINCUBATION) “inactive; negative”. Moreover, the mutagenic call (Test System: AMES SALMONELLA TYPHIMURIUM, Strain/Indicator: TA102, Metabolic Activation: NONE, Method: PREINCUBATION) is “inactive; negative”; the mutagenic call (Test System: AMES SALMONELLA TYPHIMURIUM, Strain/Indicator: TA102, Metabolic Activation: RAT, LIVER, S-9, SODIUM PHENOBARBITAL AND 5,6-BENZOFLAVONE, Method: PREINCUBATION) is “inactive; negative”; the mutagenic call (Test System: AMES SALMONELLA TYPHIMURIUM, Strain/Indicator: TA104, Metabolic Activation: NONE, Method: PREINCUBATION) is “inactive; negative”; the mutagenic call (Test System: AMES SALMONELLA TYPHIMURIUM, Strain/Indicator: TA104, Metabolic Activation: RAT, LIVER, S-9, SODIUM PHENOBARBITAL AND 5,6-BENZOFLAVONE, Method: PREINCUBATION) was “inactive; negative”; the mutagenic call (Test System: AMES SALMONELLA TYPHIMURIUM, Strain/Indicator: TA1535, Metabolic Activation: NONE, Method: PREINCUBATION) was “inactive; negative”; the mutagenic call (Test System: AMES SALMONELLA TYPHIMURIUM, Strain/Indicator: TA1535, Metabolic Activation: RAT, LIVER, S-9, SODIUM PHENOBARBITAL AND 5,6-BENZOFLAVONE, Method: PREINCUBATION) was “inactive; negative”. In addition, the mutagenic call was “inactive; negative” (Test System: AMES SALMONELLA TYPHIMURIUM, Strain/Indicator: TA1537, Metabolic Activation: NONE, Method: PREINCUBATION); “inactive; negative” (Test System: AMES SALMONELLA TYPHIMURIUM, Strain/Indicator: TA1537, Metabolic Activation: RAT, LIVER, S-9, SODIUM PHENOBARBITAL AND 5,6-BENZOFLAVONE, Method: PREINCUBATION); “inactive; negative” (Test System: Ames Salmonella typhimurium, Strain/Indicator: TA98, Metabolic Activation: Hamster, Liver, S-9, Aroclor 1254 (10%), Method: Preincubation); “inactive; negative” (Test System: Ames Salmonella typhimurium, Strain/Indicator: TA98, Metabolic Activation: None, Method: Preincubation); “inactive; negative” (Test System: Ames Salmonella typhimurium, Strain/Indicator: TA98, Metabolic Activation: Rat, Liver, S-9, Aroclor 1254 (10%), Method: Preincubation); “inactive; negative” (Test System: Ames Salmonella typhimurium, Strain/Indicator: TA100, Metabolic Activation: Hamster, Liver, S-9, Aroclor 1254 (10%), Method: Preincubation). Besides, the mutagenic call reads like this: (Test System: Ames Salmonella typhimurium, Strain/Indicator: TA100, Metabolic Activation: None, Method: Preincubation) “inactive; negative”; (Test System: Ames Salmonella typhimurium, Strain/Indicator: TA100, Metabolic Activation: Rat, Liver, S-9, Aroclor 1254 (10%), Method: Preincubation) “inactive; negative”; (Test System: Ames Salmonella typhimurium, Strain/Indicator: TA1535, Metabolic Activation: Hamster, Liver, S-9, Aroclor 1254 (10%), Method: Preincubation) “inactive; negative”; (Test System: Ames Salmonella typhimurium, Strain/Indicator: TA1535, Metabolic Activation: None, Method: Preincubation) “inactive; negative”; (Test System: Ames Salmonella typhimurium, Strain/Indicator: TA1535, Metabolic Activation: Rat, Liver, S-9, Aroclor 1254 (10%), Method: Preincubation) “inactive; negative”; (Test System: Ames Salmonella typhimurium, Strain/Indicator: TA1537, Metabolic Activation: Hamster, Liver, S-9, Aroclor 1254 (10%), Method: Preincubation) “inactive; negative”. Besides, the mutagenic call reads like this: (Test System: Ames Salmonella typhimurium, Strain/Indicator: TA1537, Metabolic Activation: None, Method: Preincubation) “inactive; negative”; (Test System: Ames Salmonella typhimurium, Strain/Indicator: TA1537, Metabolic Activation: Rat, Liver, S-9, Aroclor 1254 (10%), Method: Preincubation) “inactive; negative”; (Test System: E. COLI, Strain/Indicator: WP2UVRA/PKM101, Metabolic Activation: NONE, Method: PREINCUBATION) “inactive; negative”; (Test System: E. COLI, Strain/Indicator: WP2UVRA/PKM101, Metabolic Activation: RAT, LIVER, S-9, PHENOBARBITAL AND BETA-NAPHTHOFLAVONE, Method: PREINCUBATION) “inactive; negative”; (Test System: E. COLI, Strain/Indicator: WP2UVRA, Metabolic Activation: NONE, Method: PREINCUBATION) “inactive; negative”; (Test System: E. COLI, Strain/Indicator: WP2UVRA, Metabolic Activation: RAT, LIVER, S-9, PHENOBARBITAL AND BETA-NAPHTHOFLAVONE, Method: PREINCUBATION) “inactive; negative”.

For `Cn1c(N=[N+]=[N-])nc2ncc(-c3ccccc3)cc21`, the mutagenic call runs as follows: (Test System: AMES SALMONELLA TYPHIMURIUM, Strain/Indicator: TA98(1,8-DNP6), Metabolic Activation: NONE, Method: PREINCUBATION) “active; positive”; (Test System: AMES SALMONELLA TYPHIMURIUM, Strain/Indicator: TA98(NR), Metabolic Activation: NONE, Method: PREINCUBATION) “active; positive”; under setting [1], “active; positive”; (Test System: AMES SALMONELLA TYPHIMURIUM, Strain/Indicator: YG1024, Metabolic Activation: NONE, Method: PREINCUBATION) “active; positive”.

`CCOC(=O)NC`: the mutagenic call was “inactive; negative” (Test System: MOUSE LYMPHOMA, Strain/Indicator: L5178Y (TK+/TK-), Metabolic Activation: NONE, Method: SUSPENSION/PLATE) and “active; positive” (Test System: MOUSE LYMPHOMA, Strain/Indicator: L5178Y (TK+/TK-), Metabolic Activation: RAT, LIVER, S-9, AROCLOR 1254, Method: SUSPENSION/PLATE).

Turning to `C=C1C[C@@H]2CC[C@]34C[C@@H]5O[C@@H]6[C@H](O[C@H]7CC[C@H](CC(=O)O[C@@H]8[C@H](C)[C@@H]9O[C@@H]%10C[C@]%11(C[C@@H]%12O[C@@]%13(C[C@H](C)[C@@H]%12O%11)C[C@H](C)[C@@H]%11O[C@@H]([C@@H](O)C[C@H](O)CO)C[C@H]%11O%13)O[C@@H]%10C[C@@H]9O[C@H]8C[C@@H]8O[C@H](CC[C@@H]1O2)C[C@H](C)C8=C)O[C@@H]7[C@H]6O3)[C@H]5O4`, the mutagenic call is, setting by setting: (Test System: Mouse lymphoma, Strain/Indicator: L5178Y (tk+/tk-), Metabolic Activation: None, Method: Suspension/plate) “inactive; negative”; (Test System: Mouse lymphoma, Strain/Indicator: L5178Y (tk+/tk-), Metabolic Activation: Rat, Liver, S-9, Aroclor 1254, Method: Suspension/plate) “active; equivocal (previous evaluation positive)”.
